In ChEMBL document CHEMBL4130341 (Medchemcomm, 2016):
Calls of active or inactive are those of the source. The rule behind the calls is not given here.

Key:
Salmonella typhimurium = assay: Mutagenicity in Salmonella typhimurium TA98 in presence of mouse liver S9 fraction by Ames test; type: toxicity, organism-based; details: salmonella enterica subsp. enterica serovar typhimurium
HT-29 [1] = assay: Cytotoxicity against human HT-29 cells assessed as cell survival at 100 uM after 24 hrs by SRB assay relative to control; type: functional; details: HT-29, 24 h, read-out: Survival
HK-2 = assay: Genotoxicity in human HK2 cells assessed as induction of DNA strand breakage at 20 uM after 6 hrs by DAPI staining based alkaline comet assay; type: toxicity, cell-based; details: hk-2, 6 h
[2] = target: T1, Nuclear factor erythroid 2-related factor 2 (Mus musculus) (UniProt Q60795); assay: Activation of Nrf2 in wild type mouse Hepa1c1c7 cells cytosolic fraction assessed as induction of quinone reductase activity at 10 uM using 2,6-DCIP as substrate in presence of NADH incubated for 48 hrs measured for 1 min relative to control
T1 sequence (whole entry): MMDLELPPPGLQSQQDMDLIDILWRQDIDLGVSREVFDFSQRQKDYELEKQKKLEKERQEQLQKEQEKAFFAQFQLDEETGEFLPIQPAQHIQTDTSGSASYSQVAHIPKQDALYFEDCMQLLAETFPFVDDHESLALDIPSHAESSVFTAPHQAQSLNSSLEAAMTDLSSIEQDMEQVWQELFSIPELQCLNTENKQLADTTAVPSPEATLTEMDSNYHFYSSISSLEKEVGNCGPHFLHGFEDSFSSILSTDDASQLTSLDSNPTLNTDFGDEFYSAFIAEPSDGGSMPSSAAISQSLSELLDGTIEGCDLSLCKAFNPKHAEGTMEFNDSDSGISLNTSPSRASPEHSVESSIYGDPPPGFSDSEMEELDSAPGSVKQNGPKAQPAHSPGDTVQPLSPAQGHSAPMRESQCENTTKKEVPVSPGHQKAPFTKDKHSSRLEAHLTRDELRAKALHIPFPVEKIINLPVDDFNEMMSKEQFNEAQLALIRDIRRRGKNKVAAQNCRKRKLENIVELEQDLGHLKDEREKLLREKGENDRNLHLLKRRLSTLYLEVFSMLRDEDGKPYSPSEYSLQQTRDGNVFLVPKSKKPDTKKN

MCF7 [3] = assay: Cytotoxicity against human MCF7 cells assessed as cell survival at 100 uM after 24 hrs by SRB assay relative to control; type: functional; details: for viability at 100 µM: MCF7, 24 h, read-out: Survival
[4] = target: T1, Nuclear factor erythroid 2-related factor 2 (Mus musculus); assay: Ratio of activation of wild type Nrf2 in mouse Hepa1c1c7 cells cytosolic fraction to activation of Nrf2 in mutant mouse BpRc1 cells cytosolic fraction; type: cell-based
TK-10 = assay: Cytotoxicity against human TK10 cells assessed as cell survival after 24 hrs by SRB assay; type: functional, cell-based; details: TK-10, 24 h
[5] = target: T1, Nuclear factor erythroid 2-related factor 2 (Mus musculus); assay: Activation of Nrf2 in mutant mouse BpRc1 cells cytosolic fraction assessed as induction of quinone reductase activity at 10 uM using 2,6-DCIP as substrate in presence of NADH incubated for 48 hrs measured for 1 min relative to control; type: cell-based
[6] = Cytotoxicity against mutant mouse BpRc1 cells after 48 hrs by SRB assay; type: functional, cell-based; details: BPrc1, 48 h
[7] = target: T1, Nuclear factor erythroid 2-related factor 2 (Mus musculus); assay: Ratio of CD for activation of Nrf2 in mutant mouse BpRc1 cells cytosolic fraction to CD for activation of Nrf2 in wild type mouse Hepa1c1c7 cells cytosolic fraction; type: cell-based
[8] = Ratio of IC50 for cytotoxicity against wild type mouse Hepa1c1c7 cells to CD for activation of Nrf2 in wild type mouse Hepa1c1c7 cells cytosolic fraction
[9] = target: T1, Nuclear factor erythroid 2-related factor 2 (Mus musculus); assay: Activation of Nrf2 in mutant mouse BpRc1 cells cytosolic fraction assessed as induction of quinone reductase activity using 2,6-DCIP as substrate in presence of NADH incubated for 48 hrs measured for 1 min; type: cell-based
[10] = Ratio of IC50 for cytotoxicity against mutant mouse BpRc1 cells to CD for activation of Nrf2 in mutant mouse BpRc1 cells cytosolic fraction
[11] = target: T1, Nuclear factor erythroid 2-related factor 2 (Mus musculus); assay: Activation of Nrf2 in wild type mouse Hepa1c1c7 cells cytosolic fraction assessed as induction of quinone reductase activity using 2,6-DCIP as substrate in presence of NADH incubated for 48 hrs measured for 1 min
[12] = Cytotoxicity against wild type mouse Hepa1c1c7 cells after 48 hrs by SRB assay; type: functional, cell-based; details: Hepa-1c1c7, 48 h
[13] = target: T1, Nuclear factor erythroid 2-related factor 2 (Mus musculus); assay: Induction of Nrf2 nuclear translocation in mouse Hepa1c1c7 cells at 20 uM after 6 hrs by DAPI/Hoechst 33258 staining-based immunofluorescence method; type: cell-based
Rattus norvegicus [14] = assay: Toxicity in Wistar rat assessed as effect on body weight at 15 mg/kg, po qd administered over 2 weeks; type: organism-based; details: in vivo, 336 h
Rattus norvegicus [15] = assay: In vivo induction of CYP450 activity in Wistar rat colon microsomal fraction at 15 mg/kg, po qd administered over 2 weeks by measuring EROD activity using 7-ethoxyresorufine as substrate measured for 5 mins; type: ADME, organism-based; details: microsomes
Rattus norvegicus [16] = assay: Toxicity in Wistar rat assessed as effect on behavior at 15 mg/kg, po qd administered over 2 weeks; type: organism-based; details: in vivo, 336 h
Rattus norvegicus [17] = assay: In vivo induction of CYP450 activity in Wistar rat liver microsomal fraction at 15 mg/kg, po qd administered over 2 weeks by measuring EROD activity using 7-ethoxyresorufine as substrate measured for 5 mins; type: ADME, organism-based; details: microsomes
Rattus norvegicus [18] = assay: In vivo induction of CYP450 activity in Wistar rat mammary gland microsomal fraction at 15 mg/kg, po qd administered over 2 weeks by measuring EROD activity using 7-ethoxyresorufine as substrate measured for 5 mins; type: ADME, organism-based; details: microsomes
MCF7 [19] = assay: Cytotoxicity against human MCF7 cells assessed as cell survival after 24 hrs by SRB assay; type: functional, cell-based; details: MCF7, 24 h
HT-29 [20] = assay: Cytotoxicity against human HT-29 cells assessed as cell survival after 24 hrs by SRB assay; type: functional, cell-based; details: HT-29, 24 h

| Compound | Activity (Salmonella typhimurium) | Activity (HK-2) | fold change (FC) [2] | Ratio [4] | fold change (FC) [5] | Activity (MCF7 [3]) | other results |
| --- | --- | --- | --- | --- | --- | --- | --- |
| O=C(/C=C/c1cccc(Br)n1)c1ccccc1O | Non-Toxic | Non-Toxic | 1.23 | 1 | 1.18 |  | viability at 100 µM (HT-29 [1]): < 50%; viability at 100 µM (MCF7 [3]): < 50%; IC50 (TK-10): 18 µM |
| O=C(CC(O)c1ccccc1)c1ccc2ccccc2c1 (stereo unspecified) | Non-Toxic | Non-Toxic | 5.04 | 2.9 | 1.74 | Active |  |
| O=C(/C=C/c1ccccn1)c1ccccc1O |  | Non-Toxic |  |  |  |  |  |
| O=C(/C=C/c1ccc2ccccc2c1)c1ccccc1 | Non-Toxic | Non-Toxic | 0.95 | 0.7 | 1.41 | Active |  |
| CC(C)(C)c1cc(O)ccc1O [E319] |  |  |  |  |  |  | IC50 [6]: 60 µM; Ratio [7]: 6; Ratio [8]: 147; CD [9]: 6 µM; Ratio [10]: 10; CD [11]: 1 µM; IC50 [12]: 147 µM; Activity [13]: Active |
| O=C(/C=C/c1cccc2ccccc12)c1ccccc1 | Non-Toxic | Non-Toxic | 0.88 | 1 | 0.92 | Active |  |
| O=C(/C=C/c1cncc(Br)c1)c1ccccc1O | Non-Toxic |  | 1.51 | 1.5 | 1.03 | Active | IC50 (TK-10): 20 µM |
| O=C(/C=C/c1cccc2ccccc12)c1c(O)ccc2ccccc12 | Non-Toxic | Non-Toxic | 1.29 | 1.6 | 0.82 |  | viability at 100 µM (HT-29 [1]): < 50%; viability at 100 µM (MCF7 [3]): < 50% |
| O=C(/C=C/c1ccnc2ccccc12)c1ccc2ccccc2c1 | Non-Toxic |  | 1.28 | 1 | 1.25 | Active |  |
| O=C(/C=C/c1ccnc2ccccc12)c1ccc2ccccc2c1O |  |  | 1.48 |  | 0.85 | Active |  |
| O=C(/C=C/c1cccc2ccccc12)c1ccccc1O | Non-Toxic | Non-Toxic | 3.21 | 1.5 | 2.21 |  | IC50 [6]: 45 µM; Activity (Rattus norvegicus [14]): Non-Toxic; Ratio [7]: 0.91; viability at 100 µM (HT-29 [1]): < 50%; Activity (Rattus norvegicus [15]): Non-Toxic; Ratio [8]: 3; CD [9]: 10 µM; Ratio [10]: 4.5; Activity (Rattus norvegicus [16]): Non-Toxic; viability at 100 µM (MCF7 [3]): < 50%; CD [11]: 11 µM; Activity (Rattus norvegicus [17]): Toxic; IC50 [12]: 33 µM; Activity (Rattus norvegicus [18]): Non-Toxic; Activity [13]: Active; IC50 (TK-10): 14 µM |
| O=C(/C=C/c1ccc2ccccc2c1)c1ccccc1O | Non-Toxic | Non-Toxic | 2.96 | 2.1 | 1.39 |  | IC50 [6]: 85 µM; Ratio [7]: 40; viability at 100 µM (HT-29 [1]): < 50%; Ratio [8]: 170; CD [9]: 20 µM; Ratio [10]: 4.2; viability at 100 µM (MCF7 [3]): < 50%; CD [11]: 0.5 µM; IC50 [12]: 85 µM |
| O=C(/C=C/c1ccccc1)c1cccc2ccccc12 | Non-Toxic | Non-Toxic | 0.98 | 0.9 | 1.13 |  | viability at 100 µM (HT-29 [1]): < 50%; viability at 100 µM (MCF7 [3]): < 50%; IC50 (TK-10): 20 µM |
| O=C(/C=C/c1ccnc2ccccc12)c1ccccc1O | Non-Toxic |  | 5.42 | 4 | 1.34 |  |  |
| O=C(CC(O)c1ccccc1)c1c(O)ccc2ccccc12 (stereo unspecified) |  |  | 3.31 | 2.9 | 1.14 | Active |  |
| O=C(/C=C/c1ccc2ccccc2c1)c1ccc2ccccc2c1O | Non-Toxic |  | 1.44 | 1.5 | 0.97 | Active |  |
| O=c1cc(-c2ccc(Br)cc2)oc2ccccc12 |  |  | 4.45 | 2.99 | 1.49 |  | IC50 [6]: 150 µM; Ratio [7]: 101; Ratio [8]: 107; CD [9]: 80 µM; Ratio [10]: 1.9; CD [11]: 0.79 µM; IC50 [12]: 85 µM |
| O=C(/C=C/c1ccc2ccccc2c1)c1c(O)ccc2ccccc12 | Non-Toxic | Non-Toxic | 1.76 | 2.2 | 0.79 | Active |  |
| O=C(/C=C/c1cncc(Br)c1)c1ccc2ccccc2c1O | Non-Toxic | Non-Toxic | 2.3 | 2 | 1.13 | Active |  |
| O=C(/C=C/c1ccccc1)c1ccc2ccccc2c1O |  |  | 3.04 |  | 0.57 |  |  |
| O=C(/C=C/c1ccccc1)c1ccc2ccccc2c1 | Non-Toxic | Non-Toxic | 0.96 | 0.8 | 1.21 |  | IC50 (MCF7 [19]): 28 µM; IC50 (HT-29 [20]): 32 µM; viability at 100 µM (HT-29 [1]): < 50%; viability at 100 µM (MCF7 [3]): < 50% |
| O=C(CC(CC(=O)c1ccccc1)c1cccc2ccccc12)c1ccccc1 | Non-Toxic |  | 0.83 | 0.4 | 2.38 | Active |  |
| O=C(/C=C/c1ccnc2ccccc12)c1cccc2ccccc12 | Non-Toxic |  | 1.43 | 0.8 | 1.83 | Active |  |
| O=C(/C=C/c1ccc(Br)cc1)c1ccccc1O |  | Non-Toxic |  |  |  |  |  |
